Measurements published in EP1494749B1, “PROCESS FOR PREPARATION OF PHARMACEUTICAL COMPOSITION CONTAINING ANTIRETROVIRAL PROTEASE INHIBITOR WITH IMPROVED BIOAVAILABILITY” (Cadila Pharmaceuticals Limited, priority 2002, dated 2003).

Legend:
clinical = settings: human, in vivo
Method: 2. Kit In a further aspect, the present invention provides a kit comprising one or more pharmaceutically acceptable doses of an antiretroviral protease inhibitor as defined above and one or more pharmaceutically acceptable doses of piperine or an isomer thereof. […] However, the scope of this invention is not limited by them. […] Nelfinavir i) Two tablets each containing 250 mg of Nelfinavir and a tablet containing 20 mg of piperine. ii) Two tablets each containing 250 mg of Nelfinavir and two tablets each containing 15 mg of piperine. Saquinavir i) Three capsules each containing 200 mg of Saquinavir and three tablets each containing 5 mg of piperine. ii) Four capsules each containing 200 mg of Saquinavir and a tablets containing 20 mg of piperine. 3. The following are Examples of excipients (i.e. other than piperine) which can be used to prepare pharmaceutical compositions of the present invention. However, the scope of this invention is not limited by them. Saquinavir : • Capsule: medium chain mono- and diglycerides, povidone and dl-alpha tocopherol. […] 4. […] However, the scope of this invention is not limited by them. […] 5.

[1] = in vivo; cited from earlier work

Tmax (clinical): 1.58 h
SMILES: CC(C)(C)NC(=O)[C@@H]1CN(Cc2cccnc2)CCN1C[C@@H](O)C[C@@H](Cc1ccccc1)C(=O)N[C@H]1c2ccccc2C[C@H]1O [Indinavir]
reduction in AUC [1]: 77% ± 8%
